Laboratory results reported in patent US4826844A, “Substituted 1-(aralkyl-piperazinoalkyl) cycloalkanols” (American Home Products Corporation, priority 1987, dated 1989).

What was measured:
5-HT1A receptor = target: T1, 5-HT1A receptor (Rattus norvegicus, UniProt P19327); test: inhibition of [3H] 8-hydroxy-2-(di-n-propylamino)tetralin binding at 5-HT1A receptor sites; conditions: rat hippocampal tissue
T1 construct: from tissue; host or cells: rat hippocampus
T1 sequence (P19327 1-422): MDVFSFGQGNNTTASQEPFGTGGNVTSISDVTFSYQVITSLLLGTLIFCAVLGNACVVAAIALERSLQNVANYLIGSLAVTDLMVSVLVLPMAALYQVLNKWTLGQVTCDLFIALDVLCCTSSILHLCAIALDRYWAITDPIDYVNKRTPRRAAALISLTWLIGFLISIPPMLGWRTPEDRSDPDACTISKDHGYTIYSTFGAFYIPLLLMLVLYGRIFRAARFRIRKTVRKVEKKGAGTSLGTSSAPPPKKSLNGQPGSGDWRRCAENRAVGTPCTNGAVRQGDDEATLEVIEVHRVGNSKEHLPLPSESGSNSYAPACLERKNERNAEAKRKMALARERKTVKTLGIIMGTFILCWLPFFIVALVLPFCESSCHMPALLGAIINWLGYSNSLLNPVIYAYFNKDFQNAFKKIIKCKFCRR
Source text: 8-hydroxy-2-(di-n-propylamino)tetralin binding at 5-HT binding sites in rat hippocampal tissue, following the procedure of Hall et al., J. Neurochem., 44 1685 (1985).

dopamine D2 receptors = target: T2, dopamine D2 receptors (Rattus norvegicus, UniProt P61169); test: inhibition of 3H-haloperidol binding at dopamine D2 receptors in homogenized limbic brain tissue; conditions: for inhibition at 1 µM: read-out: Receptor Binding D2 % Inhibition at 1 μM
T2 construct: found in homogenized limbic brain tissue; from tissue; host or cells: homogenized limbic brain tissue
Source text: The actual percentage reduction of ^3 H-haloperidol binding is reported infra and the larger the number, the greater the potential for dopamine D2 receptor binding and antipsychotic activity.

[1] = system: synaptosomial uptake of norepinephrine; test: inhibition of synaptosomial uptake of norepinephrine (3H-NE); assay type: biochemical; conditions: for IC50 / Neuronal Uptake NE % Inhibition at 10 μM: synaptosomes; for IC50: read-out: Neuronal Uptake NE IC50
Source text: (§1) The pharmacological test data obtained for a representative number of compounds of this invention in accordance with the standard experimental test procedures disclosed above appear in the following table: […]

[2] = system: synaptosomial uptake of serotonin; test: inhibition of synaptosomial uptake of serotonin (14C-5-HT); assay type: biochemical; conditions: synaptosomes
Source text: as §1

T2 sequence (P61169 whole entry): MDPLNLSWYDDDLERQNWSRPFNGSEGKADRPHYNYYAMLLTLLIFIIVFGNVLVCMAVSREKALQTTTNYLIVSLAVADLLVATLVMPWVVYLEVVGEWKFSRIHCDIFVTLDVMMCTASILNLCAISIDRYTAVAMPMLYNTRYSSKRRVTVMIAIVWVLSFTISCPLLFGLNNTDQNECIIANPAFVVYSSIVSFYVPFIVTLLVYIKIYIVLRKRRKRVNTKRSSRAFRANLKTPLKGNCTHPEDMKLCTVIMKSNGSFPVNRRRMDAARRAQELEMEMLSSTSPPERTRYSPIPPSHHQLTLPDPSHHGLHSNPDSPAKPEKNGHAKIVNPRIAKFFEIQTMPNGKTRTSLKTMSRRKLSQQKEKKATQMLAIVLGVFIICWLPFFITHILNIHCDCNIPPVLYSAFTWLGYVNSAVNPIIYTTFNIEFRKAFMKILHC

SMILES | inhibition at 1 µM (5-HT1A receptor) | inhibition at 1 µM (dopamine D2 receptors; 3H-haloperidol) | also measured
COc1cccc(C(CCN2CCN(Cc3ccccc3)CC2)C2(O)CCCCC2)c1 (stereo not drawn) [Example 1, 1-[1-(3-Methoxyphenyl)-3-[4-(phenylmethyl)-1-piperazinyl]propyl]cyclohexanol] | – | – | Ki (5-HT1A receptor): 10 nM; affinity at 5-HT1A receptor binding sites (in words) (5-HT1A receptor): strong affinity at 5-HT1A receptor binding sites; Ki (dopamine D2 receptors; 3H-haloperidol, read-out: Receptor Binding D2 Ki): 209 nM; IC50 [1]: 2030 nM; IC50 ([2]; read-out: Neuronal Uptake 5HT IC50): 390 nM
COc1ccc(C(CCN2CCN(c3ncccn3)CC2)C2(O)CCCCC2)cc1 (stereo not drawn) [Example 24] | – | 11% | –
COc1ccc(C(CCN2CCN(c3cncc(Cl)n3)CC2)C2(O)CCCCC2)cc1 (stereo not drawn) [Example 9, 1-[3-[4-(6-Chloro-2-pyrazinyl)-1-piperazinyl]-1(4-methoxyphenyl)propyl]cyclohexanol] | 57% | 15% | –
CN1CCN(CC(c2cccc(C(F)(F)F)c2)C2(O)CCCCC2)CC1 (stereo not drawn) [Example 27, 1-[2-(4-Methyl-1-piperazinyl)-1-[3-(trifluoromethyl)phenyl]ethyl]cyclohexanol] | 5% | 0% | Neuronal Uptake NE % Inhibition at 10 μM [1]: 86%; antidepressant activity by inhibition of synaptosomial uptake of norepinephrine and/or serotonin (in words) [1]: selective antidepressant activity; Neuronal Uptake 5HT % Inhibition at 10 μM [2]: 0%
CN1CCN(CC(c2cccc(Cl)c2)C2(O)CCCCC2)CC1 (stereo not drawn) [Example 26, 1-[1-(3-Chlorophenyl)-2-(4-methyl-1-piperazinyl)ethyl]cyclohexanol] | 0% | 26% | antidepressant activity by inhibition of synaptosomial uptake of norepinephrine and/or serotonin (in words) [1]: selective antidepressant activity; IC50 [1]: 180 nM; Neuronal Uptake 5HT % Inhibition at 10 μM [2]: 33%
COc1ccc(C(CCN2CCN(Cc3ccccc3)CC2)C2(O)CCCCC2)cc1 (stereo not drawn) [Example 8, 1-[1-(4-Methoxyphenyl)-3-[4-(phenylmethyl)-1-piperazinyl]propyl]cyclohexanol] | 99% | 55% | IC50 [1]: 610 nM; Neuronal Uptake 5HT % Inhibition at 10 μM [2]: 67%
COc1cccc(C(CN2CCN(c3cccc(Cl)c3)CC2)C2(O)CCCCC2)c1 (stereo not drawn) [Example 18] | 97% | 39% | Neuronal Uptake NE % Inhibition at 10 μM [1]: 38%; Neuronal Uptake 5HT % Inhibition at 10 μM [2]: 62%
COc1ccc(C(CCN2CCN(Cc3cccc(Cl)c3)CC2)C2(O)CCCCC2)cc1 (stereo not drawn) [Example 12, 1-[3-[4-[(3-Chlorophenyl)methyl]-1-piperazinyl]-1-(4-methoxyphenyl)propyl]cyclohexanol] | 100% | 95% | –
COc1cccc(C(CCN2CCN(Cc3cccc(F)c3)CC2)C2(O)CCCCC2)c1 (stereo not drawn) [Example 7, 1-[3-[4-[(3-Fluorophenyl)methyl]-1-piperazinyl]-1-(3-methoxyphenyl)propyl]cyclohexanol] | 93% | 89% | –
COc1cccc(C(CCN2CCN(c3cncc(Cl)n3)CC2)C2(O)CCCCC2)c1 (stereo not drawn) [Example 3, 1-[3-[4-(6-Chloro-2-pyrazinyl)-1-piperazinyl]-1-(3-methoxyphenyl)propyl]cyclohexanol] | – | 41% | Ki (5-HT1A receptor): 122 nM
COc1cccc(C(CN2CCN(Cc3ccccc3)CC2)C2(O)CCCCC2)c1 (stereo not drawn) [Example 15, 1-[1-(3-Methoxyphenyl)-2-[4-(phenylmethyl)-1-piperazinyl]ethyl]cyclohexanol] | 91% | 90% | –

Continued, in another order:

inhibition at 1 µM (5-HT1A receptor) | inhibition at 1 µM (dopamine D2 receptors; 3H-haloperidol) | SMILES | also measured
66% | 90% | COc1cccc(C(CCN2CCN(Cc3cccc(Cl)c3)CC2)C2(O)CCCCC2)c1 (stereo not drawn) [Example 4, 1-[3-[4-[(3-Chlorophenyl)methyl]-1-piperazinyl]-1-(3-methoxyphenyl)propyl]cyclohexanol] | dopamine D2 receptor affinity / binding potential (in words) (dopamine D2 receptors): typical D2 binding potential
99% | 73% | COc1ccc(C(CCN2CCN(Cc3cccc(OC)c3)CC2)C2(O)CCCCC2)cc1 (stereo not drawn) [Example 10] | –
63% | 25% | COc1ccc(C(CCN2CCN(Cc3ccc(C(F)(F)F)cc3)CC2)C2(O)CCCCC2)cc1 (stereo not drawn) [Example 14, 1-[1-(4-Methoxyphenyl)-3-[4-[[4-(trifuloromethyl)phenyl]methyl]-1-piperazinyl]propyl]cyclohexanol] | –
97% | 51% | COc1cccc(C(CCN2CCN(Cc3ccc(Cl)cc3)CC2)C2(O)CCCCC2)c1 (stereo not drawn) [Example 5, 1-[3-[4-[(4-Chlorophenyl)methyl]-1-piperazinyl]-1-(3-methoxyphenyl)propyl]cyclohexanol] | –
78% | 59% | COc1cccc(C(CCN2CCN(c3ncccn3)CC2)C2(O)CCCCC2)c1 (stereo not drawn) [Example 2, 1-[1-(3-Methoxyphenyl)-3-[4-(2-pyrimidinyl)-1-piperazinyl]propyl]cyclohexanol] | –
94% | 32% | OC1(C(CN2CCN(c3cccc(Cl)c3)CC2)c2cccc(Cl)c2)CCCCC1 (stereo not drawn) [Example 19, 1-[1-(3-Chlorophenyl)-2-[4-(3-chlorophenyl)-1-piperazinyl]ethyl]cyclohexanol] | –
93% | 77% | COc1ccc(C(CCN2CCN(Cc3ccccc3OC)CC2)C2(O)CCCCC2)cc1 (stereo not drawn) [Example 13] | –
93% | 91% | COc1cccc(C(CCN2CCN(Cc3ccccc3OC)CC2)C2(O)CCCCC2)c1 (stereo not drawn) [Example 6, 1-[1-(3-Methoxyphenyl)-3-[4-[(2-methoxyphenyl)methyl]-1-piperazinyl]propyl]cyclohexanol] | –
100% | 100% | COc1ccc(C(CCN2CCN(Cc3cccc(C(F)(F)F)c3)CC2)C2(O)CCCCC2)cc1 (stereo not drawn) [Example 11, 1-[1-(4-Methoxyphenyl)-3-[4-[[3-(trifluoromethyl)phenyl]methyl]-1-piperazinyl]propyl]cyclohexanol] | dopamine D2 receptor affinity / binding potential (in words) (dopamine D2 receptors): typical D2 binding potential
